14 compounds from patent US7074925B1, “N-substituted derivatives of 5-oxyiminobarbituric acid” (priority 1998, dated 2006) can be followed below.

Series [1] relates to Human's platelet aggregation. The experiment in a line: Antiaggregational properties, ADP-induced platelet aggregation. The format is cell-based. Conditions: for % of inhibition of platelet aggregation: 100 μg/ml, ADP […], platelet-enriched human plasma. The source says: Human's platelet aggregation was investigated in plasma of healthy 50±3 years donors that was enriched by thrombocytes, by means of aggregometer FRM-1. […] Magnitude of a maximum non-reversible platelet aggregation in the control samples (solvent) was adopted as 100%, and that in tested samples was counted as the percentage compared to the control.

Series [2] in a line: Antioxidant action, riboflavine chemiluminescence. Format: biochemical. The following applies: solvent water, phosphate buffer pH 9.1. The source says: To assess a general antioxidant activity the method of riboflavine chemiluminescence was used. The test substance was introduced into a system consisted of phosphate buffer (pH 9.1), solution of riboflavine, and solution of bivalent iron sulfate. Chemiluminescence was initiated by 0.1% solution of hydrogen peroxide and registered by means of luminometer. […] Ascorbic acid was used as a reference agent.

Series [3] has as its system Mycobacterium smegmatis ATCC607. The experiment in a line: Antimicrobial action by serial dilution (MIC), M. smegmatis. The format is cell-based. Conditions: for MIC: Mycolicibacterium smegmatis, ATCC607, M. smegmatis ATCC 607, medium N-1, 72-hour cultivation at 37° C.
In series [4] the test system is Mycobacterium tuberculosis H37RV. Kind of series: Antimicrobial action by serial dilution (MIC), M. tuberculosis. Format: cell-based. The following applies: Soton medium with 10% horse serum, 72-hour cultivation at 37° C.; for MIC: Mycobacterium tuberculosis.
Series [5] can be described thus: Psychodepressive activity, behavioral score. Format: in vivo, mice. Conditions: per oral 300 mg/kg, one hour after dosing; total 60, less than 40 significant. The procedure: Each parameter scores 2 points for an each mouse that had unchanged behavior. The total point sum was 60 (2×10×3 mice). Reducing score to less than 40 one hour after dosing with a substance per oral (300 mg/kg) denoted significant behavioral depression. Haloperidol was utilized as a reference agent.

Series [6] in a line: Analgesic activity, tail withdrawal from radiant heat. The format is in vivo, mice. The procedure:
The time needed to draw back a tail placed under a directed source of radiant heat was estimated in a group of 3 mice. Prolongation of the response time by more than 50% after intraperitoneal dosing a substance (30 mg/kg) indicated analgesic activity. Morphine sulfate (2 mg/kg) was utilized as a reference agent.

Series [7] in a line: Antiulcerous action, water immersion stress with immobilization. Format: in vivo, rats. Conditions: 20 mg/kg perorally. The protocol:
Antiulcerous activity of substances was tested on a model of experimental water immersion stress with immobilization. […] After that, gastric mucous membrane was investigated, number and sizes of ulcers were counted, ulceration index was determined (an average sum of ulcer lengths per one animal in a group).

A short description of series [8]: Hypoglycemic activity after glucose load. The following applies: 100 mg/kg perorally, glucose 1000 mg/kg s.c. Format: in vivo, mice. The protocol:
Test substance (100 mg/kg) was perorally administrated to fasted mice, and, immediately after that, solution of glucose (1000 mg/kg) was administrated subcutaneously. Glucose content in blood was determined in a hour by the orthotoluidine method. Reducing of glucose level by more than 20% relative to control animals indicated hypoglycemic properties. Glibenclamide (I mg/kg) was utilized as a reference agent.

Series [9] in a line: Hepatoprotective activity, CCl4 liver damage (AlAT). The following applies: for AlAT: 20 mg/kg perorally 30 minutes before and 7 hours after CCl4, 24 hours, CCl4 control 0.83 ± 0.21, intact 0.27 ± 0.04; for % of reducing AlAT: 20 mg/kg perorally, relative to CCl4 control. The format is in vivo, rats. The protocol: CCl4 dissolved in 50% olive oil (1 ml/kg) was subcutaneously administrated to rats. Test substances were administrated perorally in a dose of 20 mg/kg 30 minutes before and 7 hours after the CCL4 administration. The activity of alanine-aminotranspherase (AlAT), which is a marker enzyme of liver parenchyma damage, was assessed twenty-four hours later. Reducing of enzyme amount by more than 30% relative to the control group was considered as evidence of hepatoprotective properties of the substance.
Silymarin in a dose of 100 mg/kg was used as a reference agent.

For series [10], the system named is primary culture of human lymphocytes (IFN-α production). Kind of series: Interferon-inducing activity in primary culture of human lymphocytes. The format is cell-based. The procedure: Interferon synthesis induction caused by the claimed compounds was conducted on a primary culture of human lymphocytes (it is these cells in a human organism that are the main producers of interferons). To obtain lymphocyte culture, fresh blood (within 12 hours after sampling) from healthy donors (not of group II) was used. To separate lymphocytes, heparinized blood obtained from healthy donor was centrifuged in a density gradient of ficoll-verografin of […] in order to extract a fraction of immunocompetent cells. This fraction was selected and diluted with the nutrient medium RPMI-1640, containing 5% of fetal calf serum, 0.3 mg/ml of L-glutamin, 100 un/ml of penicillin, and […] of streptomycin. The concentration of lymphocytes was considered after dying them with methylene blue and calculation of cell number in Goryaev chamber. Initial solutions of the claimed compounds were diluted with the nutrient medium RPMI-1640 so that the final concentrations of the compounds, which were obtained after introduction of lymphocyte suspension, constituted the raw: 100 μg/ml, 10 μg/ml, 1 μg/ml. The final concentration of lymphocytes in the induction mixture was 3×10^6 cell/ml.
In parallels to the test samples the following controls were done: • 1). Control of spontaneous production of interferons (IFN) by lymphocytes. • 2). […] Control of spontaneous production of interferons in presence of DMSO taken in an amount corresponding to the test samples.
Control and test samples were incubated for 24 hours at the temperature of 37° C. After incubation, the samples were centrifuged at 2,000 G to deposit cell elements, and IFN-containing supernatant was separate out of samples; then the supernatant was analyzed for the quantitative content of IFN. Cell deposition was resuspended in the previous volume of nutrient medium, coloured with vital dye trypan blue, and cell number was counted in the Goryaev chamber (as described above) to determine cytotoxic action of the compounds. The quantitative determination of content of IFN in control and test samples was conducted using the immunoenzyme test system Pro Con IF2 Plus, that is intended for determination of IFN-α, which is produced by TOO “Protein contour”. The solid-phase immunoenzyme method, utilizing horse radish peroxidase as an indicator enzyme, was used to determine the quantity of interferon in the samples. Activity of the bonded peroxidase was measured using an automatic photometer for microplates with a microprocessor at the wavelength of 450 nm.
Based on the obtained results, a calibrating curve was formed, which allows to obtain data expressed in international units (IU) of activity, using the microprocessor of the automatic photometer. The results of the analysis are expressed in IU of activity of IFN per ml in the given induction system, which contains 3×10^4 lymphocyte/ml. Each test and control point was investigated in four parallels.
Controls of immunoenzyme reaction: • 1. Control of DMSO with a nutrient medium. • 2. Control of system components (according to an instruction).
The obtained data were undergone a statistical analysis using t-criterion, and calculation of the confident interval of probability at p=0.05 was carried out. Coincidence of results in the parallel tests was analyzed.

Series [11] deals with Herpes virus of the type I (HSV-I/Leningrad/248/88). Kind of series: Effect on Herpes virus, cytopathogenic action on Vero cells. Format: cell-based, Herpes Simplex virus. The following applies: compound 100 μg/ml. The protocol: An antiviral activity was determined with respect to Herpes virus of the type I (HSV-I/Leningrad/248/88) by means of commonly accepted method. Viruses were grown on a continuous culture of Vero cells that have been received from the Bank of Cell Cultures of the Institute of Cytology of the Russian Academy of Science.
A virus in a final concentration of […] and the claimed compounds dissolved in DMSO in final concentrations of 100, 10 and 1 mg/l were added to cells that were grown on the RPMI-1640 medium with 10% fetal calf serum and placed into wells of the 96-well plate. 5 separate wells were used for each of tested concentrations of an agent. The plate was incubated during 60 minutes at 38° C. in a CO2-incubator. After the incubation, the virus was removed and then a fresh medium containing claimed compounds in used concentrations was again introduced.
Results were evaluated basing on presence of cytopathogenic action on the cells after 36 hours of incubation at 38° C. in the CO2-incubator.
The next controls were used in the experiment: • 1. Control of cell culture (capability to grow properly) • 2. Control of the virus (evaluation of capability for reproduction) • 3. Control of an antiviral activity of an antiviral drug Acyclovir • 4. Control of compounds (toxicity of compounds) • 5. Control of a solvent (DMSO) for toxicity.
To estimate a cytopathic action of the virus, a quantity of the unchanged cells was calculated in 100 visual fields formed by a special net of an eyepiece of the inverted microscope.

Series [12] in a line: Determination of maximal tolerable dose. Format: in vivo. Conditions: oral administration, mice, observed 72 hours; 300 was the maximally utilized one. The protocol:
Tested substance was introduced perorally (in dose of 300 mg/kg) through a gastric tube or intraperitoneally (in dose of 100 mg/kg) to no-breed white mice with mass 18-20 g (each tested group consisted of 3 males and 3 females). Then the mouse state was observed during 72 hours. Absence of symptoms characteristic of toxic effects, or absence of animal death during the given time allows to make a conclusion that the toxicity of the test substance is low. If acute toxicity effects are observed, the dose is reduced to find maximal tolerable dose.

Each structure is given as a SMILES string. ≈ marks a conversion by molar mass, not a printed value.

`Nc1ncnc2c1ncn2[C@@H]1O[C@H](CO)[C@@H](O)[C@H]1O` [Adenosine, reference compound]: the inhibition at 5 µg/mL in series [1] (Homo sapiens, Platelet, 5 μg/ml, ADP 2.5 μmol/l) is 100%.

With `O=C1O[C@H]([C@@H](O)CO)C(O)=C1O` [Ascorbic acid, reference compound], in series [2], the “IC50, suppressing chemiluminescence by 50%” value was found to be 2.39 µg/mL (≈ 13.6 µM).

Take `CC(=O)Oc1ccccc1C(=O)O` [Aspirin, aspirin, reference compound]: the inhibition at 9 µg/mL in series [1] (Homo sapiens, Platelet, 9 μg/ml, ADP 2.5 μmol/l) is 100%.

On to `CC[C@@H](CO)NCCN[C@@H](CC)CO` [Ethambutol], for which the MIC in series [3] and in series [4] was 5 µg/mL (≈ 24.5 µM) in each case.

Consider `O=C(CCCN1CCC(O)(c2ccc(Cl)cc2)CC1)c1ccc(F)cc1` [Haloperidol, reference compound], for which the “Point number (behavioral depression)” value in series [5] turned out to be 27.

For the compound `NNC(=O)c1ccncc1` [Isoniazid], the values for the MIC in series [3] and in [4] were 1.5 µg/mL (≈ 10.9 µM) and 0.1 µg/mL (≈ 0.729 µM), respectively.

For `CN1CC[C@]23c4c5ccc(O)c4O[C@H]2[C@@H](O)C=C[C@H]3[C@H]1C5.O=S(=O)(O)O` [Morphine, Morphine sulfate, reference compound], the “Latent period of response, before dosing” value in series [6] (before morphine sulfate 2 mg/kg) is 8.3. In addition, the “Latent period of response, 30 minutes after dosing” value in [6] (morphine sulfate 2 mg/kg) is 14.6.

Take `CC1COc2c(N3CCN(C)CC3)c(F)cc3c(=O)c(C(=O)O)cn1c23` (stereo not drawn) [Ofloxacin]: the MIC in [3] and in series [4] was 0.5 µg/mL (≈ 1.38 µM) each time.

As to `CO[C@H]1/C=C/O[C@@]2(C)Oc3c(C)c(O)c4c(O)c(cc(O)c4c3C2=O)NC(=O)/C(C)=C\C=C\[C@H](C)[C@H](O)[C@@H](C)[C@@H](O)[C@@H](C)[C@H](OC(C)=O)[C@@H]1C` [Rifamycin], the MIC in [3] stood at 0.25 µg/mL (≈ 0.358 µM); in [4] it was 0.05 µg/mL (≈ 0.0717 µM).

As for `[H]/N=C(/N)N[C@H]1[C@H](O)[C@@H](O)[C@H](O[C@@H]2O[C@@H](C)[C@](O)(C=O)[C@H]2O[C@@H]2O[C@@H](CO)[C@H](O)[C@@H](O)[C@@H]2NC)[C@@H](N/C(N)=N\[H])[C@@H]1O` [Streptomycin], the minimal inhibitory concentration (MIC) was found to be 0.15 µg/mL (≈ 0.258 µM) in series [3] and 0.2 µg/mL (≈ 0.344 µM) in series [4].

`O=C1NC(=O)N(C2CCCCC2)C(=O)C1=NO` [VIII]: in series [1], the “% of inhibition of platelet aggregation” value was 68.9 ± 5.3%. Also, the “% of animals with ulcers” value in series [7] (rats, 4 hours stress, control 100) is on record as 100%. Moreover, in series [7] (versus control), the “% of reducing number of ulcers” value is −64% and the “% of reducing ulceration index” value is given as −35%. The same compound displayed a Number of lesions in [7] (control 8.3 ± 2.5) of 3.0 ± 1.3. For the same compound, in series [7] (control 10.5 ± 5.7), the ulceration index was 6.8 ± 4.4. Also, the “% change of glucose relative to glucose control” value in series [8] is −18%. Also, the Glucose in blood in series [8] (after one hour, glucose control 8.26 ± 0.50) came out at 6.77 ± 0.61 mmol/L. Besides, in [9], the AlAT was 0.48 ± 0.19 mmol/L/h and the “% of reducing AlAT” value is −42%.

`CN1C(=O)C(=NO)C(=O)N(C)C1=S` [XL]: the “MIC, M. smegmatis” value in series [3] came to 3.1 µg/mL (≈ 15.4 µM). In addition, the entries for the “Content of IFN in induction mixture after 24-hour incubation” value in [10] (substance 1 mg/l), in [10] (substance 10 mg/l) and in [10] (substance 100 mg/l) were 5.1 ± 1.0 IU/3 × 10^4 lymph./ml, 11.3 ± 1.5 IU/3 × 10^4 lymph./ml and 22.8 ± 1.0 IU/3 × 10^4 lymph./ml, respectively. Besides, the “MIC, M. tuberculosis” value in series [4] worked out at 12.5 µg/mL (≈ 62.1 µM).

Regarding `O=C1NC(=O)N(c2ccc(Br)cc2)C(=O)C1=NO` [XXIX], the “Quantity of the unchanged cells (number of cells in 100 visual fields)” value in [11] (Vero cells, 36 hours, cell control 10000) is on record as 3000. For the same compound, the “percentage of protection of cells from virus” value in series [11] (compared to the control of cell culture) is given as “(30%)”. In addition, the “% of inhibition of platelet aggregation” value in series [1] is 16.4 ± 3.1%. In addition, the “Maximal tolerable dose, concentration of test substances” value in series [12] is given as 300 mg/kg. Further, the “Point number (behavioral depression)” value in series [5] was found to be 32. Besides, in series [9], the AlAT stood at 0.40 ± 0.04 mmol/L/h and the “% of reducing AlAT” value is −52%.

`O=C1NC(=O)N(c2cccc(F)c2)C(=O)C1=NO` [XXVI]: the “Maximal tolerable dose, concentration of test substances” value in [12] is 300 mg/kg.
